According to ChEMBL document CHEMBL1127768, “Possible antineoplastic agents : part 14 - synthesis, activity and QSAR studies of some 1-(substituted benzenesulphonyl)-5-oxopyrrolidine-2-carboxylic acid hydrazides” (1994):

Legend:
Format in all cases: functional
[1] = species: Mus musculus; assay: Observed biological activity converted into logit model against Ehrlich ascites carcinoma in mice
[2] = test system: Mus musculus; assay: In vivo antineoplastic activity against Ehrlich ascites carcinoma fluid in mice at 50 mg/kg body weight upon intraperitoneal administration; details: ip
[3] = test system: Mus musculus; assay: In vivo antineoplastic activity against Ehrlich ascites carcinoma (EAC) cells in mice at 50 mg/kg body weight upon intraperitoneal administration; details: ip
[4] = test system: Mus musculus; assay: In vivo antineoplastic activity against Ehrlich ascites carcinoma fluid in mice at 1 mg/kg body weight upon intraperitoneal administration; details: ip
[5] = test system: Mus musculus; assay: In vivo antineoplastic activity against Ehrlich ascites carcinoma (EAC) cells in mice at 1 mg/kg body weight upon intraperitoneal administration; details: ip

Row | SMILES | logit activity [1] | inhibition in vivo at 50 mg/kg [2] | inhibition in vivo at 50 mg/kg [3] | inhibition in vivo at 1 mg/kg [4] | inhibition in vivo at 1 mg/kg [5]
1 | O=C(NNc1ccccc1)C1CCC(=O)N1S(=O)(=O)c1ccccc1 (stereo unspecified) | 5.59 | 85.7% | 79% |  | 
2 | NNC(=O)C1CCC(=O)N1S(=O)(=O)c1ccc(Cl)c(Cl)c1 (stereo unspecified) | 1.03 | 58.3% | 59.3% |  | 
3 | O=C(NNc1ccccc1)C1CCC(=O)N1S(=O)(=O)c1ccc(Cl)cc1 (stereo unspecified) | 3.13 | 71.4% | 74.3% |  | 
4 | NNC(=O)C1CCC(=O)N1S(=O)(=O)c1ccccc1 (stereo unspecified) | -0.549 | 44.4% | 40.3% |  | 
5 | O=C(NNc1ccccc1)C1CCC(=O)N1S(=O)(=O)c1ccc(Cl)c(Cl)c1 (stereo unspecified) | 1.16 | 57.7% | 66.8% |  | 
6 | Cc1ccc(S(=O)(=O)N2C(=O)CCC2C(=O)NN)cc1 (stereo unspecified) | 0.61 | 52.8% | 50.1% |  | 
7 | CO[C@@]12[C@H](COC(N)=O)C3=C(C(=O)C(C)=C(N)C3=O)N1C[C@@H]1N[C@@H]12 [MITOMYCIN] |  |  |  | 100% | 100%
8 | NNC(=O)C1CCC(=O)N1S(=O)(=O)c1ccc(Cl)cc1 (stereo unspecified) | 1.25 | 61.1% | 64.9% |  | 
9 | Cc1ccc(S(=O)(=O)N2C(=O)CCC2C(=O)NNc2ccccc2)cc1 (stereo unspecified) | 1.89 | 64.3% | 77.6% |  | 
